Literature values in US20090252647A1, “COMPOSITIONS AND METHODS FOR APPLYING ANTIMICROBIALS TO SUBSTRATES” (Crosstex International, Inc., priority 2008, published 2009).

SMILES: CCCCCCCCCCCCCCCCCC[N+](C)(C)CCC[Si](O)(O)O.[Cl-] [3-(trihydroxysilyl)propyldimethyloctadecyl ammonium chloride]
- solubility in water: approximately 15 % w/v
